Where no end group is shown, it is not given here.
Experiments:
Assay type in all cases: cell-based
[1] = tested on: normal human dermal fibroblasts; assay: Ultrastructural study of caveolae in human fibroblasts; conditions: 0.5 ppm (1% of stock solution at 50 ppm), 48 hours
Protocol: The goal of this study is to study at the ultrastructural level the caveolae in human dermal fibroblasts.
Protocol: Normal human dermal fibroblasts in culture are treated with a 1% stock solution at 50 ppm of peptide SEQ ID No. 4 for 48 hours (the medium in the presence of the active ingredient is changed every 24 hours).

HMG-CoA reductase [2] = assay: Expression of HMG-CoA reductase in normal human keratinocytes (immunofluorescence); conditions: 0.5 ppm, 48 hours
Protocol: The goal of this study is to determine the influence of peptide SEQ ID No. 4 on the expression of HMG-CoA reductase in normal human keratinocytes.
Protocol: Normal human dermal keratinocytes in culture are treated with a 1% stock solution at 50 ppm of peptide SEQ ID No. 4 for 48 hours (the medium in the presence of the active ingredient is changed every 24 hours). The cells are then washed and fixed in cold methanol for 4 minutes at 4° C. The cells are incubated in the presence of a polyclonal rabbit antibody specific for HMG-CoA reductase (Millipore, Upstate), and then a secondary antibody coupled with a fluorescent dye. The cells are then examined by epifluorescence microscope (Nikon Eclipse E600 microscope).

[3] = tested on: normal human keratinocytes; assay: Ultrastructural study of lamellar bodies in human keratinocytes (transmission electron microscopy); conditions: 48 hours
Protocol: The goal of this study is to study in an ultrastructural manner, in transmission electron microscopy, keratinocytes treated by peptide SEQ ID No. 5 at 0.5 ppm.
Normal human keratinocytes in culture are treated with a 1% stock solution at 50 ppm of peptide SEQ ID No. 5 for 48 hours (the medium in the presence of the active ingredient is changed every 24 hours). The cells are washed in PBS, and then are fixed by Karnosky hypertonic fixation (4% paraformaldehyde, 5% glutaraldehyde in a 0.08M phosphate buffer) 1 hour at ambient temperature and then 24 hours at 4° C. The cells are detached from the support by scraping and centrifuged 5 minutes at 1000 rpm. The supernatant is eliminated and a 1M sodium cacodylate buffer is deposited on the residue. The cells are mixed with 2% agar and then postfixed by osmium tetraoxide for 1 hour. The specimens are then dehydrated by successive passages in a series of alcohol (from 50 to 100%). The cells are then coated in a resin. The polymerization is carried out for approximately 12 hours at 60° C. Semi-thin sections of 0.5 μm are made with an ultramicrotome. The sections are deposited on a heat bonded slide and then colored with toluidine blue. The slides are then dehydrated again and mounted in a suitable medium. […]

[4] = tested on: normal human keratinocytes; assay: Differentiation study of human keratinocytes (pankeratin immunofluorescence); conditions: 0.5 ppm, 48 hours, anti-cytopankeratin antibody, epifluorescence microscope
Protocol: The goal of this study is to determine the influence of peptide SEQ ID No. 5 on epidermal differentiation.
Protocol: Normal human keratinocytes in culture are treated with a 1% stock solution at 50 ppm of peptide SEQ ID No. 4 for 48 hours (the medium in the presence of the active ingredient is changed every 24 hours). The cells are then washed and fixed with cold methanol for 4 minutes at 4° C.

[5] = tested on: normal human keratinocytes; assay: Protective effect on skin cells subjected to UVB radiation (MTT cellular viability); conditions: 0.5 ppm, 24 hours before and 24 hours after UVB 50 mJ/cm^2, versus untreated irradiated control
Protocol: The goal of this study is to determine the protective effect of peptide SEQ ID No. 5 with relation to normal human keratinocytes subjected to stress by UVB radiation. To do this, cellular viability tests were conducted by the MTT technique.
Protocol: The normal human keratinocytes are treated with a 1% solution, a solution at 50 ppm of peptide SEQ ID No. 5, for 24 hours, irradiated by UVB (50 mJ/cm^2) and then cultivated again 24 hours in the presence of the same concentration of peptide SEQ ID No. 5. Untreated and irradiated controls are carried out under the same conditions. At the end of the experiment, the cells are incubated in a solution containing 0.1 mg/ml of MTT (3-[4,5-dimethylthiazol-2-yl]-2,5-diphenyltetrazolium bromide). This compound is absorbed by the living cells and then metabolized by mitochondrial enzymes into a blue violet compound, formazan, that will be assayed by spectrophotometry at 540 nm. The optical density (O.D.) Is then directly proportional to the mitochondrial enzymatic activity as well as to the number of living cells.

HMG-CoA reductase [6] = assay: Expression of HMG-CoA reductase in skin biopsies (immunolabelling); conditions: 0.5 ppm applied topically on human skin samples in culture, 24 hours or 48 hours
Protocol: The goal of this study is to determine the influence of peptide SEQ ID No. 5 on the expression of HMG-CoA reductase.
Protocol: Samples of human skin are placed in culture at the air/liquid interface. A 1% stock solution at 50 ppm of peptide SEQ ID No. 5 is applied topically and then the samples are incubated for 24 hours or 48 hours.
These skin samples are then fixed with formaldehyde and then enclosed in paraffin. Sections of 2 to 3 μm are then made. Immunolabelling is carried out after unmasking the specific sites by microwave treatment and then incubation in trypsin. Immunolabelling is carried out by using a polyclonal rabbit antibody specific for HMG-CoA reductase (Millipore, Upstate), and then a secondary antibody, coupled with a fluorescent dye. The skin sections are then examined by epifluorescence microscope (Nikon Eclipse E600 microscope).

HMG-CoA reductase immunofluorescence in the upper layers of the epidermis, relative to untreated control (HMG-CoA reductase [6])	Substance	caveolae in treated cells in comparison with untreated control cells [1]	HMG-CoA reductase cytoplasmic immunofluorescence in treated cells (HMG-CoA reductase [2])	Golgi complex development / production of lamellar bodies (Odland bodies) versus control cells ([3]; 0.5 ppm (1% of stock solution at 50 ppm), transmission electron microscopy)	lipid synthesis in normal human keratinocytes ([3]; 0.5 ppm, inferred from ultrastructural study)	expression of pankeratins [4]	increase of cellular viability after UVB irradiation (MTT) [5]
–	Arg-Gly-Lys-Ser (RGKS) [Peptide SEQ ID No. 4]	significant increase in caveolae	more intense cytoplasmic fluorescence	–	–	–	–
stronger fluorescence	Arg-Gly-Lys-Ser-NH2 (RGKS-NH2) [Peptide SEQ ID No. 5]	–	–	Golgi complex is substantially more developed than in the control cells	capable of inducing an increase in lipid synthesis	increases the expression of pankeratins	16%
